According to patent US20250313574A1, “SIALIC ACID DERIVATIVES AND METHODS OF USING SAME” (EISAI R&D MANAGEMENT CO., LTD., priority 2022, published 2025):

Legend:
[1] = target: Recombinant human CD33 protein (Homo sapiens (Human), UniProt P20138); test: CD33 competitive binding assay for HTS drug screen (fluorescent multivalent sialic acid probe)
How it was run: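 Recombinant human CD33, coated overnight at 4° C from 10 μg/ml in pH 5.5 acetate, was preincubated briefly with compound. It was then exposed to a multivalent neutravidin/FITC/sialic acid analog A-375 probe (final 5 μM neutravidin, 15 μM A-375, 5 μM FITC) for 30 min at room temperature. After washing, bound FITC fluorescence was read.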

[2] = target: Recombinant Human Siglec-3/CD33 protein (His-CD33) (Homo sapiens (Human), UniProt P20138); test: Differential scanning fluorimetry (DSF) thermal shift assay; assay type: binding; settings: thermal melt shift of 0.5 μM CD33 protein with 50 μM compound
Protocol: In the DSF assay, as the temperature increases, the protein gets gradually unfolded, exposing hydrophobic regions in which a fluorescent dye binds causing the fluorescence signal to increase. The midpoint of the unfolding transitions is called the thermal melt (Tm) or denaturation temperature and the Tm was defined as the peak apex in the derivative curve. Here, the Tm temperature of CD33 in the presence and absence of A-001 at a concentration of 50 μM was examined.
Recombinant Human Siglec-3/CD33 protein was purchased from Acros (catalog no. CD3-H5226) and reagents used in this study are shown in the Table 1 below.
Lyophilized CD33 protein was received in 1 mg aliquots from Acros. The protein was diluted with 2.5 mL of sterile water to a concentration of 400 μg/mL (14.5 μM), aliquoted into 138 μL aliquots and stored as at −20° C. On the day of analysis, the protein was thawed and […] solution was diluted to […] using buffer containing 133 mM NaCl, 133 mM phosphate buffered solution and 13.9× Sypro Orange dye in water in a quantity to cover the amount of samples tested on the day of the analysis.
200 μM stock solutions of A-001 containing 0.2% DMSO in water was supplied by compound management in a 384-well plate format.
Sample matrix were prepared by adding 7.5 μL of the protein buffer stock solution followed by addition of 2.5 μL of the 200 μM compound solutions in 384-well PCR plates to give a final volume of 10 μL per well consisting of 0.5 μM CD33 protein, 100 mM phosphate buffered solution pH 7.4, 100 mM NaCl, 10× SYPRO orange dye and 50 μM compound concentration (final DMSO concentration ˜0.2%). Using the Applied Biosystems® Protein Thermal Shift software (algorithm version 1.3.), the denaturation temperature or thermal melt (Tm) of the unbound and ligand bound CD33 protein was automatically assigned and the difference in thermal melt (ΔTm D) was calculated using the derivative curve by the Protein Thermal Shift software.
Recombinant human CD33 protein (0.5 μM) was incubated under buffered conditions in the presence of SYPRO orange dye, a temperature gradient was applied and a thermogram was produced by monitoring the fluorescence. The Tm was defined as the peak apex in the derivative curve in the study. […] Addition of […] of A-001 (Blue lines) to the CD33 protein induced significant Tm increases (ΔTm D) of 12.2±0.7° C.

Chain of Recombinant Human Siglec-3/CD33 protein (His-CD33) (P20138 18-259): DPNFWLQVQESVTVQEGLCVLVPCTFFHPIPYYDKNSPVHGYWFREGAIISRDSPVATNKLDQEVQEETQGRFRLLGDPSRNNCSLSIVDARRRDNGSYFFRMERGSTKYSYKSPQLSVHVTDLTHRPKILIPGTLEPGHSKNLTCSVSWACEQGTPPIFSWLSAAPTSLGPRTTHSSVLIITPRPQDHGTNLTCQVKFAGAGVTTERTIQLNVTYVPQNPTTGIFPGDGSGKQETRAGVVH
Chain of Recombinant human CD33 protein (P20138 18-259): as above

EC50 [1] | DSF (dTmD) [2] | SMILES
1020 nM | 6.6 | CC(=O)N[C@H]1[C@H]([C@H](O)[C@H](O)CNC(=O)c2cc(C)c(O)c(C)c2)O[C@@](CCN2CCOC[C@@]23CCN(C(=O)C2(C)CCC2)C3)(C(=O)O)C[C@@H]1O [A-103]
6 nM | 16.6 | CC(=O)N[C@H]1[C@H]([C@H](O)[C@H](O)CNC(=O)c2cc(C)c3[nH]ccc3c2)O[C@@](CCN2CCOC[C@@]23CCN(C(=O)OC(C)(C)C)C3)(C(=O)O)C[C@@H]1O [A-109]
30 nM | 12.2 | CC(=O)N[C@H]1[C@H]([C@H](O)[C@H](O)CNC(=O)c2ccc3ncsc3c2)O[C@@](CCN2CCOC[C@@]23CCN(C(=O)OC(C)(C)C)C3)(C(=O)O)C[C@@H]1O [A-110]
16 nM | 12.5 | CC(=O)N[C@H]1[C@H]([C@H](O)[C@H](O)CNC(=O)c2cc(C)c3[nH]ncc3c2)O[C@@](CCN2CCOC[C@@]23CCN(C(=O)OC(C)(C)C)C3)(C(=O)O)C[C@@H]1O [A-111]
22 nM | 12.5 | CC(=O)N[C@H]1[C@H]([C@H](O)[C@H](O)CNC(=O)c2ccc3[nH]cc(C)c3c2)O[C@@](CCN2CCOC[C@@]23CCN(C(=O)OC(C)(C)C)C3)(C(=O)O)C[C@@H]1O [A-112]
34 nM | 11.1 | CC(=O)N[C@H]1[C@H]([C@H](O)[C@H](O)CNC(=O)c2c[nH]c(C)c2)O[C@@](CCN2CCOC[C@@]23CCN(C(=O)OC(C)(C)C)C3)(C(=O)O)C[C@@H]1O [A-113]
22 nM | 12.4 | CC(=O)N[C@H]1[C@H]([C@H](O)[C@H](O)CNC(=O)c2ccc3ncccc3n2)O[C@@](CCN2CCOC[C@@]23CCN(C(=O)OC(C)(C)C)C3)(C(=O)O)C[C@@H]1O [A-114]
7 nM | 15.1 | CC(=O)N[C@H]1[C@H]([C@H](O)[C@H](O)CNC(=O)c2cc(Br)c(O)c(Br)c2)O[C@@](CCN2CCOC[C@@]23CCN(C(=O)OC(C)(C)C)C3)(C(=O)O)C[C@@H]1O [A-115]
42 nM | 12.4 | CC(=O)N[C@H]1[C@H]([C@H](O)[C@H](O)CNC(=O)c2cccc(Br)c2)O[C@@](CCN2CCOC[C@@]23CCN(C(=O)OC(C)(C)C)C3)(C(=O)O)C[C@@H]1O [A-116]
28 nM | 12.4 | CC(=O)N[C@H]1[C@H]([C@H](O)[C@H](O)CNC(=O)c2ccc(O)c(C)c2)O[C@@](CCN2CCOC[C@@]23CCN(C(=O)OC(C)(C)C)C3)(C(=O)O)C[C@@H]1O [A-117]
60 nM | 12.1 | COc1c(C)cc(C(=O)NC[C@@H](O)[C@@H](O)[C@@H]2O[C@@](CCN3CCOC[C@@]34CCN(C(=O)OC(C)(C)C)C4)(C(=O)O)C[C@H](O)[C@H]2NC(C)=O)cc1C [A-118]
17 nM | 14.0 | CC(=O)N[C@H]1[C@H]([C@H](O)[C@H](O)CNC(=O)c2cc(C)c(N)c(C)c2)O[C@@](CCN2CCOC[C@@]23CCN(C(=O)OC(C)(C)C)C3)(C(=O)O)C[C@@H]1O [A-119]
40 nM | 12.2 | COc1ccc(C(=O)NC[C@@H](O)[C@@H](O)[C@@H]2O[C@@](CCN3CCOC[C@@]34CCN(C(=O)OC(C)(C)C)C4)(C(=O)O)C[C@H](O)[C@H]2NC(C)=O)cc1OC [A-120]
29 nM | 13.6 | CC(=O)N[C@H]1[C@H]([C@H](O)[C@H](O)CNC(=O)c2ccc3occc3c2)O[C@@](CCN2CCOC[C@@]23CCN(C(=O)OC(C)(C)C)C3)(C(=O)O)C[C@@H]1O [A-121]
32 nM | 12.4 | CC(=O)N[C@H]1[C@H]([C@H](O)[C@H](O)CNC(=O)c2cc3ncccn3n2)O[C@@](CCN2CCOC[C@@]23CCN(C(=O)OC(C)(C)C)C3)(C(=O)O)C[C@@H]1O [A-122]
68 nM | 11.0 | COc1cc(C(=O)NC[C@@H](O)[C@@H](O)[C@@H]2O[C@@](CCN3CCOC[C@@]34CCN(C(=O)OC(C)(C)C)C4)(C(=O)O)C[C@H](O)[C@H]2NC(C)=O)cc(OC)c1O [A-123]

EC50 [1] | DSF (dTmD) [2] | SMILES
28 nM | 13.4 | CC(=O)N[C@H]1[C@H]([C@H](O)[C@H](O)CNC(=O)c2ccc3c(cnn3C)c2)O[C@@](CCN2CCOC[C@@]23CCN(C(=O)OC(C)(C)C)C3)(C(=O)O)C[C@@H]1O [A-124]
23 nM | 13.3 | CC(=O)N[C@H]1[C@H]([C@H](O)[C@H](O)CNC(=O)c2ccc3[nH]nc(C)c3c2)O[C@@](CCN2CCOC[C@@]23CCN(C(=O)OC(C)(C)C)C3)(C(=O)O)C[C@@H]1O [A-125]
50 nM | 11.2 | CC(=O)N[C@H]1[C@H]([C@H](O)[C@H](O)CNC(=O)c2cnc3[nH]ncc3c2)O[C@@](CCN2CCOC[C@@]23CCN(C(=O)OC(C)(C)C)C3)(C(=O)O)C[C@@H]1O [A-126]
59 nM | 11.7 | CC(=O)N[C@H]1[C@H]([C@H](O)[C@H](O)CNC(=O)c2cnc3[nH]nc(C)c3c2)O[C@@](CCN2CCOC[C@@]23CCN(C(=O)OC(C)(C)C)C3)(C(=O)O)C[C@@H]1O [A-127]
50 nM | 11.5 | CC(=O)N[C@H]1[C@H]([C@H](O)[C@H](O)CNC(=O)c2ccc3[nH]nc(F)c3c2)O[C@@](CCN2CCOC[C@@]23CCN(C(=O)OC(C)(C)C)C3)(C(=O)O)C[C@@H]1O [A-128]
10 nM | 15.0 | CC(=O)N[C@H]1[C@H]([C@H](O)[C@H](O)CNC(=O)c2ccc3[nH]ccc3c2)O[C@@](CCN2CCOC[C@@]23CCN(C(=O)OC(C)(C)C)C3)(C(=O)O)C[C@@H]1O [A-129]
51 nM | 12.4 | CC(=O)N[C@H]1[C@H]([C@H](O)[C@H](O)CNC(=O)c2ccc(F)c(Br)c2)O[C@@](CCN2CCOC[C@@]23CCN(C(=O)OC(C)(C)C)C3)(C(=O)O)C[C@@H]1O [A-132]
46 nM | 11.4 | CC(=O)N[C@H]1[C@H]([C@H](O)[C@H](O)CNC(=O)c2cc(Br)[nH]n2)O[C@@](CCN2CCOC[C@@]23CCN(C(=O)OC(C)(C)C)C3)(C(=O)O)C[C@@H]1O [A-133]
14 nM | 15.8 | CC(=O)N[C@H]1[C@H]([C@H](O)[C@H](O)CNC(=O)c2cc(C)c3[nH]c(CO)cc3c2)O[C@@](CCN2CCOC[C@@]23CCN(C(=O)OC(C)(C)C)C3)(C(=O)O)C[C@@H]1O [A-134]
101 nM | 9.6 | CC(=O)N[C@H]1[C@H]([C@H](O)[C@H](O)CNC(=O)c2ccc3[nH]cnc3c2)O[C@@](CCN2CCOC[C@@]23CCN(C(=O)OC(C)(C)C)C3)(C(=O)O)C[C@@H]1O [A-135]
440 nM | 6.5 | CC(=O)N[C@H]1[C@H]([C@H](O)[C@H](O)CNC(=O)c2cn(C)nc2C)O[C@@](CCN2CCOC[C@@]23CCN(C(=O)OC(C)(C)C)C3)(C(=O)O)C[C@@H]1O [A-136]
76 nM | 12.7 | CC(=O)N[C@H]1[C@H]([C@H](O)[C@H](O)CNC(=O)c2ccc3occc3c2)O[C@@](CCN2CCOC[C@@]23CCN(C(=O)OC(C)(C)C)C3)(C(=O)O)C[C@@H]1O [A-137]
600 nM | 6.6 | CC(=O)N[C@H]1[C@H]([C@H](O)[C@H](O)CNC(=O)c2ccc3c(=O)n(C)cnc3c2)O[C@@](CCN2CCOC[C@@]23CCN(C(=O)OC(C)(C)C)C3)(C(=O)O)C[C@@H]1O [A-138]
610 nM | 6.2 | CC(=O)N[C@H]1[C@H]([C@H](O)[C@H](O)CNC(=O)c2c[nH]c(C)n2)O[C@@](CCN2CCOC[C@@]23CCN(C(=O)OC(C)(C)C)C3)(C(=O)O)C[C@@H]1O [A-139]
350 nM | 7.5 | CC(=O)N[C@H]1[C@H]([C@H](O)[C@H](O)CNC(=O)c2nc(C)oc2C)O[C@@](CCN2CCOC[C@@]23CCN(C(=O)OC(C)(C)C)C3)(C(=O)O)C[C@@H]1O [A-140]
350 nM | 7.0 | CC(=O)N[C@H]1[C@H]([C@H](O)[C@H](O)CNC(=O)c2cc(C)c(C(N)=O)c(C)c2)O[C@@](CCN2CCOC[C@@]23CCN(C(=O)OC(C)(C)C)C3)(C(=O)O)C[C@@H]1O [A-141]
